According to PubChem BioAssay (NCI):
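Method: 48-hour compound exposure of cells in 96-well plates, five concentrations, linear interpolation of endpoints. TGI: concentration producing complete growth inhibition.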

Legend:
Experiment in all cases: NCI-60 cell line screen, 48 h
ACHN renal = system: ACHN renal
CAKI-1 renal = system: CAKI-1 renal
EKVX NSCLC = system: EKVX NSCLC
HOP-92 NSCLC = system: HOP-92 NSCLC
IGROV1 ovarian = system: IGROV1 ovarian
K-562 leukemia = system: K-562 leukemia
MCF7 breast = system: MCF7 breast
MDA-N = system: MDA-N
NCI-H23 lung = system: NCI-H23 lung
NCI-H460 lung = system: NCI-H460 lung
NCI-H522 lung = system: NCI-H522 lung
OVCAR-4 ovarian = system: OVCAR-4 ovarian
OVCAR-5 ovarian = system: OVCAR-5 ovarian
OVCAR-8 ovarian = system: OVCAR-8 ovarian
SK-OV-3 ovarian = system: SK-OV-3 ovarian
SNB-75 CNS = system: SNB-75 CNS
T-47D breast = system: T-47D breast
UO-31 renal = system: UO-31 renal

Structure (SMILES) | TGI (ACHN renal) | TGI (CAKI-1 renal) | TGI (EKVX NSCLC) | TGI (HOP-92 NSCLC) | TGI (IGROV1 ovarian) | TGI (K-562 leukemia) | TGI (MCF7 breast) | TGI (MDA-N) | TGI (NCI-H23 lung) | TGI (NCI-H460 lung) | TGI (NCI-H522 lung) | TGI (OVCAR-4 ovarian) | TGI (OVCAR-5 ovarian) | TGI (OVCAR-8 ovarian) | TGI (SK-OV-3 ovarian) | TGI (SNB-75 CNS) | TGI (T-47D breast) | TGI (UO-31 renal)
CC1=CC(=O)c2ccc3c4ccccc4n(C)c3c2C1=O | > 100 µM | > 67.5 µM | > 62.7 µM | > 100 µM | > 100 µM | > 100 µM | > 100 µM | 33.1 µM | > 92 µM | > 100 µM | 78.9 µM | > 100 µM | > 100 µM | > 100 µM | > 100 µM | > 100 µM | > 100 µM | > 100 µM
CCc1cn(C2CC(CO)C(CO)S2)c(=O)[nH]c1=O (stereo not given) | > 100 µM | > 100 µM | > 100 µM | > 100 µM | > 100 µM | > 100 µM | > 100 µM | > 100 µM | > 100 µM |  | > 100 µM | > 100 µM | > 100 µM | > 100 µM | > 100 µM | > 100 µM | > 100 µM | > 100 µM
COc1cccc(-c2nc(N)c(C#N)c3c2CCS(=O)(=O)c2ccc(C)cc2-3)c1 | > 100 µM | > 100 µM | > 100 µM | > 100 µM | > 100 µM | 11 µM | > 100 µM | > 42.6 µM | > 100 µM | > 100 µM | > 25.6 µM | > 100 µM | > 100 µM | > 100 µM | > 100 µM | 54 µM | > 100 µM | > 100 µM
NC(N)=NS(=O)(=O)c1ccc(NCc2cccc3c(=O)c4ccc(Cl)cc4oc23)cc1 | > 13.6 µM | > 15 µM | > 21.9 µM | 17.8 µM | > 11 µM | > 25 µM | > 25 µM | > 19.1 µM | > 21.8 µM | 7.3 µM | > 7.85 µM | > 18 µM | > 18.9 µM | > 13.7 µM | > 17.3 µM | 8.64 µM | > 23.7 µM | > 12.1 µM
NC(N)=N/N=C/c1c(Cl)nc2n1CCS2 | > 100 µM | > 100 µM | > 100 µM | > 100 µM | > 100 µM | > 100 µM | > 100 µM | > 100 µM | > 100 µM | > 100 µM | > 100 µM | > 100 µM | > 100 µM | > 100 µM | > 100 µM | > 100 µM | > 100 µM | > 100 µM
CCCCCCCCCCCCCCCCNc1nc(=O)n(C2CC(O)C(COP(=O)(O)OC3CC(n4cc(F)c(=O)[nH]c4=O)OC3CO)O2)cc1F (stereo not given) | > 100 µM | > 100 µM | 99.3 µM | > 59.5 µM | > 59.9 µM | 24.1 µM | 97.1 µM | > 100 µM | 19.4 µM | 22.6 µM | 55.4 µM | > 100 µM | > 100 µM | 44.2 µM | > 100 µM | > 68.8 µM | > 100 µM | > 46.8 µM
c1ccc([P+](Cc2ccc(C[P+](c3ccccc3)(c3ccccc3)c3ccccc3)s2)(c2ccccc2)c2ccccc2)cc1 | > 100 µM | > 100 µM | > 100 µM | > 100 µM | > 100 µM | > 100 µM | > 100 µM | > 100 µM | > 100 µM | > 100 µM | > 100 µM | > 100 µM | > 100 µM | > 100 µM | > 100 µM | > 100 µM | > 100 µM | > 100 µM
C=C(Cl)C(Cl)(CBr)CCCC(C)C (stereo not given) | 26.2 µM | 12.1 µM | 35 µM | 31.7 µM | > 100 µM | > 100 µM | 28.5 µM | 97.1 µM | > 100 µM | 30.2 µM | > 100 µM | > 100 µM | 35.6 µM | 47.6 µM | > 100 µM | 41.5 µM | > 41.4 µM | 39.2 µM
Cc1ccc(C(=O)c2[nH]c(NCc3ccccc3)c(C(=S)Nc3ccccc3)c2N)cc1 | 23.5 µM | 27.5 µM | 26.5 µM | 18.9 µM | 19.9 µM | 5.11 µM | 13.2 µM | 12.3 µM | 27.1 µM | 18.8 µM | 4.96 µM | 12.5 µM | 27 µM | 26.1 µM | 8.04 µM | 16.6 µM | 33.5 µM | 18.2 µM
CC1=NN(c2nc(N)nc(CCl)n2)C(C)(C)C1 | 31 µM | 9.27 µM | 42.1 µM | 45.7 µM | 20.5 µM | > 69.5 µM | > 100 µM | > 100 µM | 28.6 µM | 36.2 µM | 2.94 µM | 27 µM | > 78 µM | > 55.5 µM | > 100 µM | > 75.6 µM | > 100 µM | 19.7 µM
CC(Oc1ccc(Cl)cc1Cl)C(=O)NN1C(=O)CC(=O)NC1=S (stereo not given) | > 100 µM | > 100 µM | > 100 µM | > 100 µM | > 100 µM | > 100 µM | > 100 µM | > 100 µM | > 100 µM | > 100 µM | > 100 µM | > 100 µM | > 100 µM | > 100 µM | > 100 µM | > 100 µM | > 100 µM | > 100 µM
Cc1cc(NS(=O)(=O)c2ccc(NC(=O)c3ccc4nc5ccccc5c(Nc5ccc(S(N)(=O)=O)cc5)c4c3)cc2)no1 | 45.6 µM | > 100 µM | 63 µM | 78.3 µM | > 100 µM | 44.6 µM | 37.1 µM | 66 µM | 95.2 µM | 53.1 µM | 37.7 µM | 89.9 µM | 65.8 µM | 66 µM | > 100 µM | 94.7 µM | 71.3 µM | 43.4 µM
